Test results reported in US4220755A, “Fortimicin B derivatives and process for production thereof” (Abbott Laboratories, priority 1976, dated 1980).
In brackets after ≈: the same amount, converted by molar mass. Like-named read-outs stand apart in the source and are kept apart here.

How the values were obtained:
[1] = system: Pseudomonas aeruginosa R9 KY8516; experiment: MIC, agar dilution method, pH 7.2; format: cell-based
Procedure: (§1) Measurement was carried out according to the agar dilution method, using a medium of pH 8.0, or the Japanese Antibiotic Medicament Standard, using a medium of pH 7.2 Units are in mcg/ml.
(§2) 3: kanamycin, producing acetyltransferase.

[2] = system: Serratia marcescens 1065; experiment: MIC, agar dilution method, pH 7.2; format: cell-based; settings: Serratia marcescens, 1065, pH 7.2, read-out: Minimum inhibition concentration (MIC)
Procedure: as §1, §2

[3] = system: Escherichia coli R17 Z343; experiment: MIC, agar dilution method, pH 7.2; format: cell-based
Procedure: as §1, §2

[4] = system: Staphylococcus a ureus 226; experiment: MIC, agar dilution method, pH 7.2; format: cell-based, Staphylococcus aureus
Procedure: as §1

[5] = system: Eschericihia coli 3100; experiment: MIC, agar dilution method, pH 7.2; format: cell-based, Escherichia coli
Procedure: as §1

[6] = system: Escherichia coli 57R/W677; experiment: MIC, agar dilution method, pH 7.2; format: cell-based; settings: 57R/W677, pH 7.2, read-out: Minimum inhibition concentration (MIC)
Procedure: as §1
(§3) **1: gentamicin, producing adenylsynthetase.

[7] = system: Escherichia coli 76-2; experiment: MIC, agar dilution method, pH 7.2; format: cell-based
Procedure: as §1, §3

[8] = system: Escherichia coli R12 Z-338; experiment: MIC, agar dilution method, pH 7.2; format: cell-based; settings: R12Z338, pH 7.2, E. coli R12 Z-338, 1**: gentamicin, producing adenylsynthetase, read-out: Minimum inhibition concentration (MIC)
Procedure: as §1, §3

[9] = system: Klebsiella pneumoniae 3020 Y-60; experiment: MIC, agar dilution method, pH 7.2; format: cell-based
Procedure: as §1, §3

[10] = system: Escherichia coli R20 KY8349; experiment: MIC, agar dilution method, pH 7.2; format: cell-based; settings: R20KY8349, pH 7.2, E. coli R20 KY8349, 5**: neomycin, producing phosphotransferase type I, read-out: Minimum inhibition concentration (MIC)
Procedure: as §1
5: neomycin, producing phosphotransferase type I.

[11] = system: Providencia sp 164; experiment: MIC, agar dilution method, pH 7.2; format: cell-based; settings: pH 7.2; Providencia sp 164; 7**: gentamicin, producing acetyltransferase type II; read-out: Minimum inhibition concentration (MIC)
Procedure: as §1
7: gentamicin, producing acetyltransferase type II.

[12] = system: Staphylococcus aureus Smith (A); experiment: MIC, agar dilution method, pH 7.2; format: cell-based
Procedure: as §1

[13] = system: Escherichia coli NIHTC-2; experiment: MIC, agar dilution method, pH 7.2; format: cell-based; settings: Escherichia coli, NIHTC2, pH 7.2, read-out: Minimum inhibition concentration (MIC)
Procedure: as §1

[14] = system: Eschericihia coli GN2411-5; experiment: MIC, agar dilution method, pH 7.2; format: cell-based; settings: Escherichia coli, GN2411, pH 7.2, read-out: Minimum inhibition concentration (MIC)
Procedure: as §1

[15] = system: Proteus vulgaris JJ; experiment: MIC, agar dilution method, pH 7.2; format: cell-based; settings: Proteus vulgaris, pH 7.2, read-out: Minimum inhibition concentration (MIC)
Procedure: as §1

[16] = system: Pseudomonas aeruginosa UCLA 4184; experiment: MIC, agar dilution method, pH 7.2; format: cell-based
Procedure: as §1

[17] = system: Staphylococcus aureus 209-P; experiment: MIC, agar dilution method, pH 7.2; format: cell-based
Procedure: as §1

[18] = system: Klebsiella pneumoniae KY4274; experiment: MIC, agar dilution method, pH 7.2; format: cell-based; settings: Klebsiella pneumoniae, KY4274, pH 7.2, read-out: Minimum inhibition concentration (MIC)
Procedure: as §1

[19] = system: Pseudomonas aeruginosa BMH# 1; experiment: MIC, agar dilution method, pH 7.2; format: cell-based
Procedure: as §1

[20] = system: Shigella sonnei ATCC9290; experiment: MIC, agar dilution method, pH 7.2; format: cell-based; settings: read-out: Minimum inhibition concentration (MIC)
Procedure: as §1

[21] = system: Salmonella enteritidis G-14; experiment: MIC, agar dilution method, pH 7.2; format: cell-based; settings: Salmonella enterica, ENTERITIDIS, pH 7.2, read-out: Minimum inhibition concentration (MIC)
Procedure: as §1

[22] = system: Escherichia coli R19 KY8348; experiment: MIC, agar dilution method, pH 7.2; format: cell-based
Procedure: as §1
(§4) 4: gentamicin, producing acetyltransferase type I.

[23] = system: Pseudomonas aeruginosa R4 KY8511; experiment: MIC, agar dilution method, pH 7.2; format: cell-based
Procedure: as §1, §4

[24] = system: Pseudomonas aeruginosa R5 KY8512; experiment: MIC, agar dilution method, pH 7.2; format: cell-based
Procedure: as §1
6: neomycin, producing phosphotransferase type I and type II.

[25] = system: Escherichia coli R18 KY8321; experiment: MIC, agar dilution method, pH 7.2; format: cell-based; settings: R18KY8321, E. coli R18 KY8321, 2**: gentamicin, producing adenylsynthetase and neomycin phosphotransferase type II, read-out: Minimum inhibition concentration (MIC)
Procedure: as §1
2: gentamicin, producing adenylsynthetase and neomycin phosphotransferase

[26] = system: Proteus vulgaris KY4277 ATCC6897; experiment: MIC, agar dilution method, pH 8.0; format: cell-based; settings: ATCC6897; pH 8.0; Proteus vulgaris KY4277; read-out: Minimum inhibition concentration (MIC), PV
Procedure: as §1

[27] = system: Shigella sonnei KY4281 ATCC9290; experiment: MIC, agar dilution method, pH 8.0; format: cell-based; settings: ATCC9290; pH 8.0; Shigella sonnei KY4281; read-out: Minimum inhibition concentration (MIC), SS
Procedure: as §1

[28] = system: Klebsiella pneumoniae KY4275 ATCC10031; experiment: MIC, agar dilution method, pH 8.0; format: cell-based; settings: ATCC10031; pH 8.0; Klebsiella pneumoniae KY4275; read-out: Minimum inhibition concentration (MIC), KP
Procedure: as §1
K.P.: Klebsiella pneumoniae KY4275 ATCC10031.

[29] = system: Salmonella typhosa KY4278 ATCC9992; experiment: MIC, agar dilution method, pH 8.0; format: cell-based; settings: Salmonella enterica, pH 8, read-out: Minimum inhibition concentration (MIC), ST
Procedure: as §1
S.T.: Salmonella typhosa KY4278 ATCC9992

[30] = system: Bacillus subtilis KY4273; experiment: MIC, agar dilution method, pH 8.0; format: cell-based; settings: pH 8.0; Bacillus subtilis KY4273; read-out: Minimum inhibition concentration (MIC), BS
Procedure: as §1
B.S.: Bacillus subtilis KY4273

[31] = system: Staphylococcus aureus KY4279 ATCC6538P; experiment: MIC, agar dilution method, pH 8.0; format: cell-based; settings: pH 8.0, Staphylococcus aureus KY4279, read-out: Minimum inhibition concentration (MIC), SA
Procedure: as §1
S.A.: Staphylococcus aureus KY4279 ATCC6538P

[32] = system: Eschericia coli KY4271 ATCC26; experiment: MIC, agar dilution method, pH 8.0; format: cell-based; settings: Escherichia coli, ATCC26; pH 8.0; E. coli KY4271; read-out: Minimum inhibition concentration (MIC), EC
Procedure: as §1
E.C.: Eschericia coli KY4271 ATCC26

NC[C@H]1O[C@H](O[C@H]2[C@H](O)[C@@H](O[C@H]3O[C@H](CO)[C@@H](O)[C@H](N)[C@H]3O)[C@H](N)C[C@@H]2N)[C@H](O)[C@@H](O)[C@@H]1O [KA, kanamycin A, reference compound]
MIC ([1]; R9KY8516, pH 7.2, read-out: Minimum inhibition concentration (MIC)): > 100 µg/mL
MIC [2]: 100 µg/mL (≈ 206 µM)
MIC ([3]; R17Z343, pH 7.2, E. coli R17 Z343, 3**: kanamycin, producing acetyltransferase, read-out: Minimum inhibition concentration (MIC)): 12.5 µg/mL (≈ 25.8 µM)
MIC ([4]; pH 7.2, read-out: Minimum inhibition concentration (MIC)): 0.78 µg/mL (≈ 1.61 µM)
MIC ([5]; Escherichia coli, 3100, pH 7.2, read-out: Minimum inhibition concentration (MIC)): 3.12 µg/mL (≈ 6.44 µM)
MIC [6]: > 100 µg/mL
MIC ([7]; Escherichia coli, 762, pH 7.2, E. coli 76-2, 1**: gentamicin, producing adenylsynthetase, read-out: Minimum inhibition concentration (MIC)): > 100 µg/mL
MIC [8]: 100 µg/mL (≈ 206 µM)
MIC ([9]; Klebsiella pneumoniae, 3020Y60, pH 7.2, read-out: Minimum inhibition concentration (MIC)): > 100 µg/mL
MIC [10]: > 100 µg/mL
MIC [11]: > 100 µg/mL
MIC ([12]; Staphylococcus aureus, pH 7.2, read-out: Minimum inhibition concentration (MIC)): 0.4 µg/mL (≈ 0.826 µM)
MIC [13]: 1.56 µg/mL (≈ 3.22 µM)
MIC [14]: 3.12 µg/mL (≈ 6.44 µM)
MIC [15]: 1.56 µg/mL (≈ 3.22 µM)
MIC ([16]; Pseudomonas aeruginosa, UCLA4184, pH 7.2, read-out: Minimum inhibition concentration (MIC)): > 100 µg/mL
MIC ([17]; Staphylococcus aureus, 209P, pH 7.2, read-out: Minimum inhibition concentration (MIC)): 0.4 µg/mL (≈ 0.826 µM)
MIC [18]: > 100 µg/mL
MIC ([19]; Pseudomonas aeruginosa, pH 7.2, read-out: Minimum inhibition concentration (MIC)): 25 µg/mL (≈ 51.6 µM)
MIC [20]: 3.12 µg/mL (≈ 6.44 µM)
MIC [21]: 3.12 µg/mL (≈ 6.44 µM)
MIC ([22]; R19KY8348, pH 7.2, read-out: Minimum inhibition concentration (MIC)): 1.56 µg/mL (≈ 3.22 µM)
MIC ([23]; R4KY8511, pH 7.2, read-out: Minimum inhibition concentration (MIC)): 100 µg/mL (≈ 206 µM)
MIC ([24]; R5KY8512, pH 7.2, read-out: Minimum inhibition concentration (MIC)): > 100 µg/mL
MIC [25]: > 100 µg/mL

CO[C@H]1[C@@H](O)[C@H](N)[C@@H](O[C@H]2O[C@H]([C@H](C)N)CC[C@H]2N)[C@H](O)[C@@H]1N(C)CC(O)CCN (stereo partly drawn) [Compound 29, 4-N-[(R,S)-4-amino-2-hydroxybutyl]fortimicin B]
MIC ([1]; R9KY8516, pH 7.2, P. aeruginosa R9 KY8516, 3**: kanamycin, producing acetyltransferase, read-out: Minimum inhibition concentration (MIC)): 50 µg/mL (≈ 115 µM)
MIC [2]: 6.25 µg/mL (≈ 14.3 µM)
MIC ([3]; R17Z343, pH 7.2, read-out: Minimum inhibition concentration (MIC)): 3.12 µg/mL (≈ 7.16 µM)
MIC ([4]; pH 7.2, Staphylococcus aureus 226, read-out: Minimum inhibition concentration (MIC)): 0.78 µg/mL (≈ 1.79 µM)
MIC [26]: 0.32 µg/mL (≈ 0.735 µM)
MIC [27]: 0.63 µg/mL (≈ 1.45 µM)
MIC ([5]; Escherichia coli, pH 7.2, E. coli 3100, read-out: Minimum inhibition concentration (MIC)): 12.5 µg/mL (≈ 28.7 µM)
MIC [6]: 12.5 µg/mL (≈ 28.7 µM)
MIC ([7]; Escherichia coli, 762, pH 7.2, read-out: Minimum inhibition concentration (MIC)): 3.12 µg/mL (≈ 7.16 µM)
MIC [8]: 12.5 µg/mL (≈ 28.7 µM)
MIC ([9]; 3020Y60, pH 7.2, Klebsiella pneumoniae 3020 Y-60, 1**: gentamicin, producing adenylsynthetase, read-out: Minimum inhibition concentration (MIC)): 25 µg/mL (≈ 57.4 µM)
MIC [10]: 3.12 µg/mL (≈ 7.16 µM)
MIC [11]: 25 µg/mL (≈ 57.4 µM)
MIC [28]: 0.63 µg/mL (≈ 1.45 µM)
MIC ([12]; pH 7.2, Staphylococcus aureus Smith (A), read-out: Minimum inhibition concentration (MIC)): 0.4 µg/mL (≈ 0.918 µM)
MIC [13]: 3.12 µg/mL (≈ 7.16 µM)
MIC [14]: 6.25 µg/mL (≈ 14.3 µM)
MIC [15]: 3.12 µg/mL (≈ 7.16 µM)
MIC ([16]; UCLA4184, pH 7.2, Pseudomonas aeruginosa UCLA 4184, read-out: Minimum inhibition concentration (MIC)): 25 µg/mL (≈ 57.4 µM)
MIC ([17]; pH 7.2, Staphylococcus aureus 209-P, read-out: Minimum inhibition concentration (MIC)): 0.4 µg/mL (≈ 0.918 µM)
MIC [18]: 6.25 µg/mL (≈ 14.3 µM)
MIC ([19]; pH 7.2, Pseudomonas aeruginosa BMH# 1, read-out: Minimum inhibition concentration (MIC)): 12.5 µg/mL (≈ 28.7 µM)
MIC [20]: 6.25 µg/mL (≈ 14.3 µM)
MIC [21]: 6.25 µg/mL (≈ 14.3 µM)
MIC ([22]; R19KY8348, pH 7.2, E. coli R19 KY8348, 4**: gentamicin, producing acetyltransferase type I, read-out: Minimum inhibition concentration (MIC)): > 100 µg/mL
MIC ([23]; R4KY8511, pH 7.2, P. aeruginosa R4 KY8511, 4**: gentamicin, producing acetyltransferase type I, read-out: Minimum inhibition concentration (MIC)): > 100 µg/mL
MIC [29]: 0.16 µg/mL (≈ 0.367 µM)
MIC [30]: 0.04 µg/mL (≈ 0.0918 µM)
MIC [31]: 0.08 µg/mL (≈ 0.184 µM)
MIC ([24]; R5KY8512, pH 7.2, P. aeruginosa R5 KY8512, 6**: neomycin, producing phosphotransferase type I and type II, read-out: Minimum inhibition concentration (MIC)): 12.5 µg/mL (≈ 28.7 µM)
MIC [32]: 0.16 µg/mL (≈ 0.367 µM)
MIC [25]: 12.5 µg/mL (≈ 28.7 µM)
